{"source": "BindingDB's records for doi:10.1111/cbdd.12840", "about": "(Miranda House, 2017)", "biological_target": "T1, Putative FAD-containing monooxygenase MymA (Mycobacterium tuberculosis (strain ATCC 25618 / H37Rv), UniProt P9WNF7)", "T1 sequence (P9WNF7 whole entry)": "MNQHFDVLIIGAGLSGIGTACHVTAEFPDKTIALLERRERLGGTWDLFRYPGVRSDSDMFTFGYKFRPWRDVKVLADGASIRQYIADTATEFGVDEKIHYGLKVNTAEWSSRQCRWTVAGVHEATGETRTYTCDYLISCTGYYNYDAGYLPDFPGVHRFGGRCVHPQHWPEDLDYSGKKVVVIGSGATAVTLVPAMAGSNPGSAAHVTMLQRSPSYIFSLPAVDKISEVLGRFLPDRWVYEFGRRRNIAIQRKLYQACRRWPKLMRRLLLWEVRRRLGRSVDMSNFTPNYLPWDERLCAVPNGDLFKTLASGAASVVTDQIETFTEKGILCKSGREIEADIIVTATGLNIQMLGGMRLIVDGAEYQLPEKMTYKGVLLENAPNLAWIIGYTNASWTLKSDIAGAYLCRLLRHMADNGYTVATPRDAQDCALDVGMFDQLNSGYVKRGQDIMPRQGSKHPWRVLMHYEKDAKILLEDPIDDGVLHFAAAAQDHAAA", "experiment": "MymA Inhibition Assay", "protocol": "Inhibition of MymA activity by INH was checked using different concentrations (0-12 um) of INH, 100 um of trimeth-ylamine and 5 mg of MymA along with the other components in the enzyme assay as described above.", "data": [{"smiles": "NNC(=O)c1ccncc1", "note": "[4-pyridinecarbohydrazide(Isoniazid)]", "values": [{"measurement": "IC50", "result": 4.9, "unit": "µM"}]}]}
